In patent publication US12486290B2, “Isoindolinone and indazole compounds for the degradation of EGFR” (C4 THERAPEUTICS, INC., priority 2019, dated 2025) one finds DC50 data, which are given here for twelve compounds.

Format in all cases: cell-based
In test [1] the target is T1, EGFR T790M/L858R (NCI-H1975 cells) (Homo sapiens, UniProt P00533, L858R/T790M).
T1 construct: NCI-H1975 (harboring EGFR heterozygous T790M/L858R mutations); host or cells: NCI-H1975
In words: EGFR (L858R) degradation analysis, Total EGFR (L858R) HTRF, NCI-H1975 cells. The conditions noted are these: 6 hours. In a few lines:
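Cells (10000/well NCI-H1975 and NCI-H1975+CS, 1000/well NCI-H3255) treated with 11-point half-log titrations from 10 μM top, in duplicate, for 6 hours at 37° C., 5% CO2. Total EGFR (L858R) quantified by HTRF FRET; untreated cells as negative and cell-free wells as positive control.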

The target in test [2] is T2, EGFR L858R (NCI-H3255 cells) (Homo sapiens, UniProt P00533, L858R).
T2 construct: NCI-H3255 (harboring EGFR heterozygous L858R mutation); host or cells: NCI-H3255
Nature of the test: EGFR (L858R) degradation analysis, Total EGFR (L858R) HTRF, NCI-H3255 cells. The settings on record: 6 hours. The source says: (§1) NCI-H1975 (harboring EGFR heterozygous T790M/L858R mutations) and NCI-H3255 (harboring EGFR heterozygous L858R mutation) were purchased from ATCC and NCI, respectively. NCI-H1975+CS (harboring EGFR heterozygous T/790M/L858R/C797S mutations) was generated using CRISPR technology to introduce the additional C797S mutation by Horizon Discovery. RPMI 1640 no-phenol red medium and fetal bovine serum (FBS) were purchased from Gibco (Grand Island, NY, USA). Cell culture flasks and 384-well microplates were acquired from VWR (Radnor, PA, USA). Total EGFR (L858R) HTRF assay kits were purchased from Cisbio (Bedford, MA, USA).
(§2) Degradation of EGFR protein containing L858R mutation was determined based on quantification of FRET signal using Total EGFR (L858R) HTRF assay kit. Test compounds were added to the 384-well plate from a top concentration of 10 μM with 11 points, half log titration in duplicates. NCI-H1975, NCI-H1975+CS or NCI-H3255 cells were added into 384-well plates at a cell density of 10000, 10000 or 1000 cells per well, respectively. The plates were kept at 37° C. with 5% CO2 for 6 hours. Cells treated in the absence of the test compound were the negative control. Positive control was set by wells containing all reagents but no cells. FRET signal was acquired on EnVision™ Multilabel Reader (PerkinElmer, Santa Clara, CA, USA).

The target of test [3] is T3, EGFR T790M/L858R/C797S (NCI-H1975+CS cells) (Homo sapiens, UniProt P00533, C797S/L858R/T790M).
T3 construct: NCI-H1975+CS (harboring EGFR heterozygous T/790M/L858R/C797S mutations) was generated using CRISPR technology; host or cells: NCI-H1975+CS (CRISPR-edited NCI-H1975)
Nature of the test: EGFR (L858R) degradation analysis, Total EGFR (L858R) HTRF, NCI-H1975+CS cells. The conditions noted are these: 6 hours, read-out: H1975 C797S clone EGFR DC50.
From the text: as §1, §2

T1 sequence (P00533 25-1210 T790M/L858R): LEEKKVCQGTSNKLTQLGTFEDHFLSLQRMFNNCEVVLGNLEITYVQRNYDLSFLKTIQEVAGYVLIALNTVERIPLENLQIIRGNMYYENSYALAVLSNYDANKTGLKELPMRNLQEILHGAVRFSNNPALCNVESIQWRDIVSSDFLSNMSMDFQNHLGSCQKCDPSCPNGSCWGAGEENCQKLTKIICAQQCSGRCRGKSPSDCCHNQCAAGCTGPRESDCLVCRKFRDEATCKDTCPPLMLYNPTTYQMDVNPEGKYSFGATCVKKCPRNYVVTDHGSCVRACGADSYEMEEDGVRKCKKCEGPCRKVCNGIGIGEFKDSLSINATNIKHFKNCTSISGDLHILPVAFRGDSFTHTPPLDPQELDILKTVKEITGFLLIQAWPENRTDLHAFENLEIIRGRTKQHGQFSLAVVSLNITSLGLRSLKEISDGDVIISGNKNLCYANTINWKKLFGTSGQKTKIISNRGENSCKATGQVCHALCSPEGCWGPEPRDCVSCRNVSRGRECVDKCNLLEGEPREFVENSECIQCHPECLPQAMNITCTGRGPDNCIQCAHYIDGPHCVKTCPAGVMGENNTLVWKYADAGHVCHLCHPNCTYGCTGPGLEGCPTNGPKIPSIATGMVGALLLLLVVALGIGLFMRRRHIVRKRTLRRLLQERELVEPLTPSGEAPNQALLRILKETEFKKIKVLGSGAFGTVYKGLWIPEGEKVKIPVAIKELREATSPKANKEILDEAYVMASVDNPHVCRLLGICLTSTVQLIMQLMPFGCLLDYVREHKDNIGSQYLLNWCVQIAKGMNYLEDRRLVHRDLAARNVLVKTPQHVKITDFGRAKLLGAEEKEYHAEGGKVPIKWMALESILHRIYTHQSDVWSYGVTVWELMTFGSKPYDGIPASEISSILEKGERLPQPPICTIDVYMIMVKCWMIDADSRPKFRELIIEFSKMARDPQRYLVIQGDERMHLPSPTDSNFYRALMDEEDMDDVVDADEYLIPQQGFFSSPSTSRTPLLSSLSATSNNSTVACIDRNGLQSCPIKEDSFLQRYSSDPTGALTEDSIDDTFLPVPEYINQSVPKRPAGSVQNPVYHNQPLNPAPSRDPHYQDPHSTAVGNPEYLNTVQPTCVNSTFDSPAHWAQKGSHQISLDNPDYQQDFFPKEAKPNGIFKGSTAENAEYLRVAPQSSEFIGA
T3 sequence (P00533 25-1210 T790M/C797S/L858R): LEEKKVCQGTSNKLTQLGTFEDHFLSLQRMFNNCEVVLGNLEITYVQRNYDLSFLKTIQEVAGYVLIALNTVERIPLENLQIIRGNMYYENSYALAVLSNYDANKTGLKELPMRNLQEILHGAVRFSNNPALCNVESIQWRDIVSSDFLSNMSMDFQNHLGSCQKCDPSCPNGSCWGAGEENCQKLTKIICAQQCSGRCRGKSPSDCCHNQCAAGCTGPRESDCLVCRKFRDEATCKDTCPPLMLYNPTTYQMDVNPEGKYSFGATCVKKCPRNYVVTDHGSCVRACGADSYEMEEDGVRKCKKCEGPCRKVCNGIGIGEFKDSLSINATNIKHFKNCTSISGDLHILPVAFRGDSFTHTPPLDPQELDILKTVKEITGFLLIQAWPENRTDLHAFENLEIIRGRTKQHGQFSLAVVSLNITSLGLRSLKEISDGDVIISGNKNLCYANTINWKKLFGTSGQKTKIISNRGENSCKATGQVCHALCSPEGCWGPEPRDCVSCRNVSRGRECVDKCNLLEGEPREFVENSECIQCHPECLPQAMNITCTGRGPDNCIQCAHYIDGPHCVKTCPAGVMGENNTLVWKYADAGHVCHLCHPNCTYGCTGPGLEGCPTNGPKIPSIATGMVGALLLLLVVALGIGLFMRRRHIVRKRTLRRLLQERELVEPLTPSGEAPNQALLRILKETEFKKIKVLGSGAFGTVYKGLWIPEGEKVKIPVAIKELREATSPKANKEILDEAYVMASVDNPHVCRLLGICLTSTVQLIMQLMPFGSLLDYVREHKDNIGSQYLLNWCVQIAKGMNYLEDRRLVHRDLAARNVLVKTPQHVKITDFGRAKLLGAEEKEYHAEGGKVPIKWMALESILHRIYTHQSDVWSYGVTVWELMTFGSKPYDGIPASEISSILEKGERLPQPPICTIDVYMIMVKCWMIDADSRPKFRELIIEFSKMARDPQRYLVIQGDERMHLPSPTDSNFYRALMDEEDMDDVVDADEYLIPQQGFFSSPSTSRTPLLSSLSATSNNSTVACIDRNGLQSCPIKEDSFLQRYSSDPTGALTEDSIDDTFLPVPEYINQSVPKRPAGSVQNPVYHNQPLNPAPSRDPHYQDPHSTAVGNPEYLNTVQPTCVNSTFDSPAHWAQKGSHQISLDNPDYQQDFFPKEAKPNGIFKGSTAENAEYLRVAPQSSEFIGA
T2 sequence (P00533 25-1210 L858R): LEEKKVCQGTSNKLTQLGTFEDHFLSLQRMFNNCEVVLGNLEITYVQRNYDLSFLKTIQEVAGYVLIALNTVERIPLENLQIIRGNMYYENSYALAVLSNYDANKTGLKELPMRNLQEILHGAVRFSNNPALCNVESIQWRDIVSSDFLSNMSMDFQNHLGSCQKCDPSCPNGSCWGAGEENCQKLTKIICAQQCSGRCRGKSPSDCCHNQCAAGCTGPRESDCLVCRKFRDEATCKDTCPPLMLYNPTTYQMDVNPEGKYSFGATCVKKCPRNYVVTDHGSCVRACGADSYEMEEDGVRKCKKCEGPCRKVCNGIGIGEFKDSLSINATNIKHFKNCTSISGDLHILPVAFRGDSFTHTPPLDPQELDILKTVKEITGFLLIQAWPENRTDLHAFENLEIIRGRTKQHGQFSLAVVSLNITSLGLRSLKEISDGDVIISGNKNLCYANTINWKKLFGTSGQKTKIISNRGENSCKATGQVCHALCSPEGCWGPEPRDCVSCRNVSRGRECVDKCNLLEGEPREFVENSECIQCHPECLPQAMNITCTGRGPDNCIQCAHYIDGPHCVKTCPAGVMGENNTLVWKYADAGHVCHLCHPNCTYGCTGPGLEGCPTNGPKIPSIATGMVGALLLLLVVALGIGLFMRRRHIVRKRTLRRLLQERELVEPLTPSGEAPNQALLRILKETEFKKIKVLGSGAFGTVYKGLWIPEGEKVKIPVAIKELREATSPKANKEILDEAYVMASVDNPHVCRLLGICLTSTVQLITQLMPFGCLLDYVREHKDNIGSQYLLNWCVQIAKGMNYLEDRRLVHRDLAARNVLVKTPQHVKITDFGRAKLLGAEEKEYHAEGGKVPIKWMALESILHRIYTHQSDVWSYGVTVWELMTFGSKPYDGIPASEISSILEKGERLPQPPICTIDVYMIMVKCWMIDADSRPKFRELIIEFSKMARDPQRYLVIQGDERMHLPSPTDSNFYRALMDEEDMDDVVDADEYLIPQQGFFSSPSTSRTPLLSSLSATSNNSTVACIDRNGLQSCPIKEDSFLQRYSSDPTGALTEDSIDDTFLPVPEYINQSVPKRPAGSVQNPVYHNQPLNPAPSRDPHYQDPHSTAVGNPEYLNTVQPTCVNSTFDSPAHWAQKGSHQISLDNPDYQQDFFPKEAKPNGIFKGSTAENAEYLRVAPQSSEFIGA

For `O=C1CC[C@H](Nc2ccc(C3CCN(CC(=O)N4CCN(c5ccc(-c6cc(F)c7c(c6)C(=O)N(C(C(=O)Nc6nccs6)c6ncn8c6CCC8)C7)cc5)CC4)CC3)cc2)C(=O)N1` (stereo partly drawn) [Compound 6, 2-(6,7-dihydro-5H-pyrrolo[1,2-c]imidazol-1-yl)-2-[6-[4-[4-[2-[4-[4-[[(3S)-2,6-dioxo-3-piperidyl]amino]phenyl]-1-piperidyl]acetyl]piperazin-1-yl]phenyl]-4-fluoro-1-oxo-isoindolin-2-yl]-N-thiazol-2-yl-acetamide], the DC50 amounted to 0.022 µM in test [1], 0.007 µM in test [2] and 0.008 µM in test [3].
The like results for `O=C1CCC(Nc2ccc(C3CCN(CC(=O)N4CCN(c5ccc(-c6cc(F)c7c(c6)C(=O)N(C(C(=O)Nc6ccccn6)c6ncn8c6CCC8)C7)cc5)CC4)CC3)c(F)c2)C(=O)N1` (stereo not drawn) [Compound 20, 2-(6,7-dihydro-5H-pyrrolo[1,2-c]imidazol-1-yl)-2-[6-[4-[4-[2-[4-[4-[(2,6-dioxo-3-piperidyl)amino]-2-fluoro-phenyl]-1-piperidyl]acetyl]piperazin-1-yl]phenyl]-4-fluoro-1-oxo-isoindolin-2-yl]-N-(2-pyridyl)acetamide] were, in that order, 0.059 µM, 0.025 µM and 0.034 µM.
The like results for `O=C1CCC(Nc2ccc(C3CCN(CC(=O)N4CCN(c5ccc(-c6cc(F)c7c(c6)C(=O)N(C(C(=O)Nc6nccs6)c6ncn8c6C[C@@H](F)C8)C7)cc5)CC4)CC3)cc2)C(=O)N1` (mixture of isomers) [Compound 43, (2RS)-2-[6-[4-[4-[2-[4-[4-[[(3RS)-2,6-Dioxo-3-piperidyl]amino]phenyl]-1-piperidyl]acetyl]piperazin-1-yl]phenyl]-4-fluoro-1-oxo-isoindolin-2-yl]-2-[(6R)-6-fluoro-6,7-dihydro-5H-pyrrolo[1,2-c]imidazol-1-yl]-N-thiazol-2-yl-acetamide] were, in that order, 0.013 µM, 0.006 µM and 0.018 µM.
In the same order, the values of `O=C1CCC(Nc2ccc(C3CCN(CC(=O)N4CCN(Cc5ccc(-c6cc(F)c7c(c6)C(=O)N(C(C(=O)Nc6nccs6)c6ncn8c6CCC8)C7)cc5)CC4)CC3)c(F)c2)C(=O)N1` (stereo not drawn) [Compound 57, 2-(6,7-dihydro-5H-pyrrolo[1,2-c]imidazol-1-yl)-2-[6-[4-[[4-[2-[4-[4-[(2,6-dioxo-3-piperidyl)amino]-2-fluoro-phenyl]-1-piperidyl]acetyl]piperazin-1-yl]methyl]phenyl]-4-fluoro-1-oxo-isoindolin-2-yl]-N-thiazol-2-yl-acetamide] are 0.046 µM, 0.011 µM and 0.007 µM.
`Cn1nc(N2CCC(=O)NC2=O)c2ccc(C3CCN(CC(=O)N4CCN(c5ccc(-c6cc(F)c7c(c6)C(=O)N(C(C(=O)Nc6nccs6)c6ncn8c6CCC8)C7)cc5)CC4)CC3)cc21` (stereo not drawn) [Compound 17, 2-(6,7-dihydro-5H-pyrrolo[1,2-c]imidazol-1-yl)-2-(6-(4-(4-(2-(4-(3-(2,4-dioxotetrahydropyrimidin-1(2H)-yl)-1-methyl-1H-indazol-6-yl)piperidin-1-yl)acetyl)piperazin-1-yl)phenyl)-4-fluoro-1-oxoisoindolin-2-yl)-N-(thiazol-2-yl)acetamide]: the results for the half-maximal degradation concentration (DC50) in test [1], in test [2] and in test [3] were 0.029 µM, 0.006 µM and 0.022 µM, respectively.
For `O=C1CCC(Nc2ccc(C3CCN(CC(=O)N4CCN(c5ccc(-c6cc(F)c7c(c6)C(=O)N(C(C(=O)Nc6nccs6)c6ncn8c6CCC8)C7)cc5)CC4)CC3)cc2)C(=O)N1` (stereo not drawn) [Compound 5, 2-(6,7-dihydro-5H-pyrrolo[1,2-c]imidazol-1-yl)-2-[6-[4-[4-[2-[4-[4-[(2,6-dioxo-3-piperidyl)amino]phenyl]-1-piperidyl]acetyl]piperazin-1-yl]phenyl]-4-fluoro-1-oxo-isoindolin-2-yl]-N-thiazol-2-yl-acetamide], the results for the DC50 in test [1], in test [2] and in test [3] were 0.02 µM, 0.006 µM and 0.017 µM, respectively.
The like results for `O=C1CCC(Nc2ccc(C3CCN(CC(=O)N4CCC(Oc5ccc(-c6cc(F)c7c(c6)C(=O)N(C(C(=O)Nc6nccs6)c6ncn8c6CCC8)C7)cc5)CC4)CC3)c(F)c2)C(=O)N1` (stereo not drawn) [Compound 35, 2-(6,7-dihydro-5H-pyrrolo[1,2-c]imidazol-1-yl)-2-(6-(4-((1-(2-(4-(4-((2,6-dioxopiperidin-3-yl)amino)-2-fluorophenyl)piperidin-1-yl)acetyl)piperidin-4-yl)oxy)phenyl)-4-fluoro-1-oxoisoindolin-2-yl)-N-(thiazol-2-yl)acetamide] were, in that order, 0.046 µM, 0.009 µM and 0.012 µM.
The like results for `O=C1CCC(Nc2ccc(C3CCN(CC(=O)N4CCC(c5ccc(-c6cc(F)c7c(c6)C(=O)N(C(C(=O)Nc6nccs6)c6ncn8c6CCC8)C7)cc5)CC4)CC3)cc2)C(=O)N1` (stereo not drawn) [Compound 21, 2-(6,7-dihydro-5H-pyrrolo[1,2-c]imidazol-1-yl)-2-(6-(4-(1-(2-(4-(4-((2,6-dioxopiperidin-3-yl)amino)phenyl)piperidin-1-yl)acetyl)piperidin-4-yl)phenyl)-4-fluoro-1-oxoisoindolin-2-yl)-N-(thiazol-2-yl)acetamide] were, in that order, 0.031 µM, 0.011 µM and 0.017 µM.
The like results for `O=C1CC[C@H](Nc2ccc(C3CCN(CC(=O)N4CCC(Oc5ccc(-c6cc(F)c7c(c6)C(=O)N(C(C(=O)Nc6nccs6)c6ncn8c6CCC8)C7)cc5)CC4)CC3)cc2)C(=O)N1` (stereo partly drawn) [Compound 32, 2-(6,7-dihydro-5H-pyrrolo[1,2-c]imidazol-1-yl)-2-[6-[4-[[1-[2-[4-[4-[[(3S)-2,6-dioxo-3-piperidyl]amino]phenyl]-1-piperidyl]acetyl]-4-piperidyl]oxy]phenyl]-4-fluoro-1-oxo-isoindolin-2-yl]-N-thiazol-2-yl-acetamide] were, in that order, 0.047 µM, 0.012 µM and 0.011 µM.
On to `O=C1CC[C@H](Nc2ccc(C3CCN(CC(=O)N4CCN(Cc5ccc(-c6cc(F)c7c(c6)C(=O)N(C(C(=O)Nc6nccs6)c6ncn8c6CCC8)C7)cc5)CC4)CC3)c(F)c2)C(=O)N1` (stereo partly drawn) [Compound 58, 2-(6,7-dihydro-5H-pyrrolo[1,2-c]imidazol-1-yl)-2-[6-[4-[[4-[2-[4-[4-[[(3S)-2,6-dioxo-3-piperidyl]amino]-2-fluoro-phenyl]-1-piperidyl]acetyl]piperazin-1-yl]methyl]phenyl]-4-fluoro-1-oxo-isoindolin-2-yl]-N-thiazol-2-yl-acetamide], for which the half-maximal degradation concentration (DC50) in test [1] was 0.026 µM; in test [2] it was 0.026 µM; in test [3], 0.014 µM.
Consider `O=C1CC[C@H](Nc2ccc(C3CCN(C(=O)CN4CCN(Cc5ccc(-c6cc(F)c7c(c6)C(=O)N(C(C(=O)Nc6nccs6)c6ncn8c6CCC8)C7)cc5)CC4)CC3)c(F)c2)C(=O)N1` (stereo partly drawn) [Compound 59, 2-(6,7-dihydro-5H-pyrrolo[1,2-c]imidazol-1-yl)-2-[6-[4-[[4-[2-[4-[4-[[(3S)-2,6-dioxo-3-piperidyl]amino]-2-fluoro-phenyl]-1-piperidyl]-2-oxo-ethyl]piperazin-1-yl]methyl]phenyl]-4-fluoro-1-oxo-isoindolin-2-yl]-N-thiazol-2-yl-acetamide], for which the half-maximal degradation concentration (DC50) in test [1] worked out at 0.019 µM; in test [2], 0.012 µM; in test [3], 0.008 µM.
Turning to `O=C1CC[C@@H](Nc2ccc(C3CCN(CC(=O)N4CCC(Oc5ccc(-c6cc(F)c7c(c6)C(=O)N(C(C(=O)Nc6nccs6)c6ncn8c6CCC8)C7)cc5)CC4)CC3)cc2)C(=O)N1` (stereo partly drawn) [Compound 33, 2-(6,7-dihydro-5H-pyrrolo[1,2-c]imidazol-1-yl)-2-[6-[4-[[1-[2-[4-[4-[[(3R)-2,6-dioxo-3-piperidyl]amino]phenyl]-1-piperidyl]acetyl]-4-piperidyl]oxy]phenyl]-4-fluoro-1-oxo-isoindolin-2-yl]-N-thiazol-2-yl-acetamide], the DC50 in test [1] was 0.038 µM; in test [2], 0.008 µM; in test [3] it was 0.019 µM.
